Test systems include Acinetobacter baumannii; Escherichia coli IP76-24; Microsporum canis IP1194.
Common to all, as to test: ≥ marks a high value that may be exact or a test limit, other limits are often not marked, values filed in µg/mL are converted to µM
The subject of test [1] is Bacillus megaterium ATCC 19213.
Test [2] relates to Bacillus subtilis NBRC 3513.
Test [3] relates to Staphylococcus aureus NBRC 12732.
Test [4] has as its system Staphylococcus epidermidis NBRC 12933.
The test system of test [5] is Aeromonas caviae IP67-16T.
Test [6] has as its system Aspergillus fumigatus IP1025-70.
In test [7] the test system is Aspergillus niger IP218-53.
Test [8] relates to Candida albicans IP884-65.
Test [9] concerns Candida albicans IP886-65.
In test [10] the test system is Cryptococcus neoformans IP960-67.
Test [11] has as its system Cryptococcus neoformans IP962-67.
Test [12] concerns Enterococcus faecalis IP103214.
The subject of test [13] is Nocardia brasiliensis IP16-80.
For test [14], the system named is Saccharomyces cerevisiae IP118079.
In test [15] the test system is Staphylococcus aureus IP76-25.
For test [16], the system named is Trichophyton mentagrophytes IP877-71.
In test [17] the test system is Trichophyton rubrum IP2043-92.
Test [18] deals with Trichophyton simii IP1063-74.
Test [19] concerns Trichophyton simii J43 IP903-65.
Test [20] deals with Bacillus megaterium CGMCC 1.0459.
The subject of test [21] is Micrococcus luteus CGMCC 1.0290.
Test [22] has as its system Escherichia coli ATCC 25922.
The subject of test [23] is Staphylococcus aureus ATCC 25929.
The test system of test [24] is Staphylococcus aureus USA 300.
Test [25] concerns Staphylococcus epidermidis ATCC 35984.

Converted amounts (≈) assume the structure as drawn. Some results are limits rather than exact numbers.

As to `CC[C@H](C)[C@H](NC(=O)[C@H](C)N)C(=O)N[C@@H](Cc1ccccc1)C(=O)N[C@H](C(=O)N[C@@H](Cc1ccccc1)C(=O)N[C@H](C(=O)N[C@@H](CCCN=C(N)N)C(=O)N[C@@H](Cc1c[nH]c2ccccc12)C(=O)N[C@@H](CC(C)C)C(=O)N[C@@H](CC(C)C)C(=O)N[C@@H](CCCCN)C(=O)O)[C@@H](C)CC)[C@@H](C)CC` [AIFIFIRWLLK], the MIC – broadly, the lowest concentration found to suppress growth – in test [1] is 16 µM (≈ 22.7 µg/mL); in [2], no less than 32 µM; in test [3], 16 µM (≈ 22.7 µg/mL); in [4], no less than 32 µM.
With `CSCC[C@H](NC(=O)[C@H](Cc1c[nH]c2ccccc12)NC(=O)[C@H](CC(C)C)NC(=O)[C@H](C)N)C(=O)N[C@H](C(=O)N[C@@H](CC(C)C)C(=O)N[C@@H](CC(C)C)C(=O)N[C@@H](CCCCN)C(=O)N[C@@H](CCCCN)C(=O)N[C@H](C(=O)N[C@@H](CC(C)C)C(=O)N[C@@H](CCCCN)C(=O)N[C@@H](C)C(=O)N[C@@H](C)C(=O)N[C@@H](C)C(=O)N[C@@H](CCCCN)C(=O)N[C@@H](C)C(=O)N[C@@H](CC(C)C)C(=O)N[C@@H](CC(N)=O)C(=O)N[C@@H](C)C(=O)N[C@H](C(=O)N[C@@H](CC(C)C)C(=O)N[C@H](C(=O)NCC(=O)N[C@@H](C)C(=O)N[C@@H](CC(N)=O)C(=O)N[C@@H](C)C(=O)O)C(C)C)C(C)C)C(C)C)[C@@H](C)O` [ALWMTLLKKVLKAAAKALNAVLVGANA], the MIC against Acinetobacter baumannii was found to be 4.5 µM (≈ 12.5 µg/mL); in [5], 0.5 µM (≈ 1.39 µg/mL); in test [6], 20 µM (≈ 55.6 µg/mL); in [7] it was 30 µM (≈ 83.4 µg/mL); in test [8] it was 20 µM (≈ 55.6 µg/mL); in [9], 20 µM (≈ 55.6 µg/mL). Also, the MIC came out at 2 µM (≈ 5.56 µg/mL) in test [10]; 1 µM (≈ 2.78 µg/mL) in [11]; 20 µM (≈ 55.6 µg/mL) in [12]; 4 µM (≈ 11.1 µg/mL) against Escherichia coli IP76-24; 15 µM (≈ 41.7 µg/mL) with Microsporum canis IP1194; 10 µM (≈ 27.8 µg/mL) in [13]. The MIC in [14] is 20 µM (≈ 55.6 µg/mL); in test [15], 10 µM (≈ 27.8 µg/mL); in test [16] it was 20 µM (≈ 55.6 µg/mL); in [17] it was no less than 40 µM; in [18], 30 µM (≈ 83.4 µg/mL); in test [19], 20 µM (≈ 55.6 µg/mL).
For `CC(C)C[C@@H]1NC(=O)[C@@H]2CSSC[C@@H](C(=O)N[C@@H](CCCN=C(N)N)C(=O)O)NC(=O)[C@H](C(C)C)NC(=O)[C@@H]3CSSC[C@H](NC(=O)[C@H](C)NC(=O)[C@H](CO)NC(=O)[C@H](Cc4cnc[nH]4)NC(=O)[C@H](CC(N)=O)NC(=O)[C@@H]4CCCN4C(=O)[C@H](CO)NC(=O)[C@H](C(C)C)NC(=O)[C@H](Cc4c[nH]c5ccccc45)NC(=O)[C@H](CCCCN)NC(=O)[C@H](CO)NC(=O)[C@H](CCC(N)=O)NC(=O)[C@H](Cc4ccccc4)NC(=O)[C@H](CO)NC(=O)[C@H](CC(C)C)NC(=O)[C@H](C(C)C)NC(=O)[C@H](CC(=O)O)NC(=O)[C@@H](NC(=O)[C@H](CO)NC(=O)[C@@H](N)Cc4ccccc4)CSSC[C@H](NC(=O)[C@H](CCCCN)NC(=O)CNC(=O)CNC(=O)[C@H](CCCCN)NC(=O)[C@H](CCCN=C(N)N)NC(=O)[C@H](CCCN=C(N)N)NC(=O)[C@H](CCC(N)=O)NC(=O)[C@H](C)NC1=O)C(=O)N[C@@H](CCCCN)C(=O)N[C@@H](CC(N)=O)C(=O)NCC(=O)N[C@@H](CC(=O)O)C(=O)N3)C(=O)N[C@@H](C)C(=O)N[C@@H](C(C)C)C(=O)N[C@@H](CCCN=C(N)N)C(=O)N2` [FSCDVLSFQSKWVSPNHSACAVRCLAQRRKGGKCKNGDCVCR], the results for the MIC in [20] and in test [21] were 1.5 µM (≈ 6.96 µg/mL) and 4.54 µM (≈ 21.1 µg/mL), respectively.
As for `CC(C)C[C@H](NC(=O)[C@H](CC(C)C)NC(=O)[C@@H](NC(=O)[C@@H]1CCCN1C(=O)[C@H](CCCCN)NC(=O)[C@@H](N)[C@@H](C)O)[C@@H](C)O)C(=O)NCC(=O)N[C@@H](CC(C)C)C(=O)N1CCC[C@H]1C(=O)N[C@@H](CC(C)C)C(=O)NCC(=O)N[C@@H](C)C(=O)NCC(=O)N1CCC[C@H]1C(=O)N[C@@H](C)C(=O)N[C@@H](C)C(=O)NCC(=O)N1CCC[C@H]1C(=O)NCC(=O)N[C@@H](CCCCN)C(=O)N[C@@H](CCCN=C(N)N)C(N)=O` [TKPTLLGLPLGAGPAAGPGKR], the MIC in [22] was found to be 16 µM (≈ 31.5 µg/mL); in test [23], 8 µM (≈ 15.8 µg/mL).
For the molecule `CC[C@H](C)[C@H](NC(=O)[C@H](C)NC(=O)[C@H](CCCCN)NC(=O)[C@@H](NC(=O)[C@@H](NC(=O)[C@H](CCCCN)NC(=O)[C@@H](NC(=O)[C@@H](NC(=O)[C@@H](NC(=O)CNC(=O)[C@@H](N)C(C)C)[C@@H](C)O)[C@@H](C)CC)[C@@H](C)CC)[C@@H](C)CC)[C@@H](C)CC)C(=O)N[C@H](C(=O)N[C@@H](CC(=O)O)C(=O)N[C@H](C(=O)N[C@@H](Cc1ccccc1)C(=O)N[C@@H](C)C(=O)N[C@@H](CCCCN)C(=O)O)[C@@H](C)CC)[C@@H](C)CC` [VGTIIKIIKAIIDIFAK], the MIC in test [24] and in test [25] was no less than 64 µM each time.

Values taken from DBAASP.
